Reference: US20240115654A1, “INTRAVENOUS ADMINISTRATION OF ENGINEERED ANTIMICROBIAL AMPHIPHILIC PEPTIDES” (priority 2021, published 2024)
Converted amounts (≈) assume the structure as drawn. Peptide text beside a SMILES is read from it.

Tests used:
S. aureus = assay: Periprosthetic joint infection model, implant biofilm CFU; type: in vivo; settings: mouse, intraperitoneal; SEQ ID NO:1 0.1-10 mg/kg; compared to untreated control mice, FIG. 16
Experimental: Periprosthetic joint infection was modeled in a mouse by placing an intra-articular K-wire through the medullary canal of the proximal femur followed by intra-articular inoculation with S. aureus. Animals were treated systemically with an intraperitoneal delivery of cefazolin, rifampin, or the exemplary peptide of SEQ ID NO: 1. Intraperitoneal delivery was chosen due to technical difficulties associated with intravenous delivery. Implant sonication and proximal femur homogenate were used to quantify viable bacteria.

[1] = tested on: P. aeruginosa strains (PAO1 and 2 clinical isolates); assay: Determination of bacterial resistance, passage at 0.5×MIC with daily MIC; type: cell-based, Pseudomonas aeruginosa; settings: three P. aeruginosa strains, exposure at 0.5×MIC, FIG. 20
From the text: Each antibiotic was compared for their propensity to select for bacterial resistance phenotypes in vitro.

[2] = tested on: Escherichia coli ATCC 35218 (ESBL); type: cell-based; settings: ATCC 35218
Experimental: (§1) Each peptide was formulated in PBS buffer prior to testing. Peptides of SEQ ID NO:5 and SEQ ID NO:8 were brought up in 100% DMSO with 0.002% polysorbate-80 at 1.28 mg/mL (40× the highest final test concentration of 32 mcg/mL). Final test concentration of DMSO was 2.5% in the assay at the first dilution for those two compounds.
(§2) Mueller Hinton II broth (MHB II; BD; Lot Nos. 6258541 and 7143896) was used for MIC testing of aerobic organisms. 0.002% polysorbate 80 (P80) was added to the test medium.
(§3) MIC values were determined using a broth microdilution procedure described by CLSI (1, 3). Automated liquid handlers (Multidrop 384, Labsystems, Helsinki, Finland; Biomek 2000 and Biomek FX, Beckman Coulter, Fullerton CA) were used to conduct serial dilutions and liquid transfers.
(§4) To prepare the drug mother plates, which would provide the serial peptide dilutions for the replicate daughter plates, the wells of columns 2-12 of standard 96-well microdilution plates (Costar 3795) were filled with 150 μl of the designated diluent for each row of peptide. The test articles and comparator compounds (300 μl at 40× the highest concentration to be tested) were dispensed into the appropriate wells in column 1. The Biomek 2000 was then used to make 2-fold serial dilutions in the mother plates from column 1 through column 11. The wells of Column 12 contained no drug and served as the organism growth control wells for the assay.
(§5) The daughter plates were loaded with 185 μL per well of MHB II using the Multidrop 384. The daughter plates were completed on the Biomek FX instrument which transferred 5 uL of peptide solution from each well of a mother plate to the corresponding well of each daughter plate in a single step. A standardized inoculum of each test organism was prepared per CLSI methods. The inoculum for each organism was dispensed into sterile reservoirs divided by length (Beckman Coulter), and the Biomek 2000 was used to inoculate the plates. Daughter plates were placed on the Biomek 2000 work surface in reverse orientation so that inoculation took place from low to high drug concentration. The plates were then inoculated with 10 μL of the inoculum resulting in a final cell density of approximately 5×10^5 CFU/mL, per well.
(§6) Plates were stacked 3-4 high, covered with a lid on the top plate, placed in plastic bags, and incubated at 35° C. for 16 to 20 hrs. Following incubation, the microplates were removed from the incubator and viewed from the bottom using a plate viewer. […] The MIC was read and recorded as the lowest concentration of peptide that inhibited visible growth of the organism.

[3] = tested on: Pseudomonas aeruginosa ATCC 27853 (non-MDR; QC); type: cell-based; settings: ATCC 27853
Experimental: as §1, §2, §3, §4, §5, §6

[4] = tested on: Enterococcus faecalis ATCC 29212 (VSE; QC); type: cell-based; settings: ATCC 29212
Experimental: as §1, §2, §3, §4, §5, §6

[5] = tested on: Enterococcus faecalis ATCC 700802 (V583 VRE); type: cell-based; settings: ATCC 700802
Experimental: as §1, §2, §3, §4, §5, §6

[6] = tested on: Escherichia coli ATCC BAA-2471 (NDM-1); type: cell-based; settings: ATCC BAA-2471
Experimental: as §1, §2, §3, §4, §5, §6

[7] = tested on: Staphylococcus aureus ATCC 43300 (MRSA); type: cell-based; settings: ATCC 43300
Experimental: as §1, §2, §3, §4, §5, §6

[8] = tested on: Acinetobacter baumannii ATCC 19606 (non-MDR); type: cell-based; settings: ATCC 19606
Experimental: as §1, §2, §3, §4, §5, §6

[9] = tested on: Streptococcus pneumoniae ATCC 49619 (QC); type: cell-based; settings: ATCC 49619
Experimental: as §1, §2, §3, §4, §5, §6

[10] = tested on: Enterococcus faecium ATCC 51559 (VRE); type: cell-based; settings: ATCC 51559
Experimental: as §1, §2, §3, §4, §5, §6

[11] = tested on: Klebsiella pneumoniae ATCC BAA-1705 (KPC); type: cell-based; settings: ATCC BAA-1705
Experimental: as §1, §2, §3, §4, §5, §6

[12] = tested on: Streptococcus pyogenes ATCC 49399; type: cell-based; settings: ATCC 49399
Experimental: as §1, §2, §3, §4, §5, §6

[13] = tested on: Staphylococcus aureus NRS382 (USA100; HA-MRSA); type: cell-based; settings: USA100
Experimental: as §1, §2, §3, §4, §5, §6

[14] = tested on: Staphylococcus aureus ATCC 29213 (MSSA; QC); type: cell-based; settings: ATCC 29213
Experimental: as §1, §2, §3, §4, §5, §6

[15] = tested on: Acinetobacter baumannii ATCC BAA-1797 (MDR); type: cell-based; settings: ATCC BAA-1797
Experimental: as §1, §2, §3, §4, §5, §6

[16] = tested on: Pseudomonas aeruginosa ATCC BAA-2109 (MDR); type: cell-based; settings: ATCC BAA-2109
Experimental: as §1, §2, §3, §4, §5, §6

[17] = tested on: Escherichia coli ATCC 25922 (QC); type: cell-based; settings: ATCC 25922
Experimental: as §1, §2, §3, §4, §5, §6

[18] = tested on: S. aureus strain SH1000 biofilms; assay: In vitro biofilm disruption on stainless steel rods; type: cell-based, Staphylococcus aureus; settings: S. aureus SH1000, 10×MIC, up to 24 hours, FIG. 15
From the text: FIG. 15 depicts the effect of administration of SEQ ID NO:1 and cefazolin on biofilm maintenance. […] SEQ ID NO:1 eliminated mature implant biofilms on a model strain of S. aureus, SH1000.

Row | Molecule | reduction of implant biofilm CFU burden (sonicate culture) (S. aureus) | time to development of resistance (fold MIC >10) [1] | MIC [2] | MIC [3] | MIC [4] | MIC [5] | MIC [6] | MIC [7] | MIC [8] | MIC [9] | MIC [10] | MIC [11] | MIC [12] | MIC [13] | MIC [14] | MIC [15] | MIC [16] | MIC [17] | reduction of mature biofilm on stainless steel rods [18]
1 | CO[C@H]1/C=C/O[C@@]2(C)Oc3c(C)c(O)c4c(O)c(c(/C=N/N5CCN(C)CC5)c(O)c4c3C2=O)NC(=O)/C(C)=C\C=C\[C@H](C)[C@H](O)[C@@H](C)[C@@H](O)[C@@H](C)[C@H](OC(C)=O)[C@@H]1C [Rifampin] | comparable reduction in biofilms sonicate as compared to SEQ ID NO:1 | ≤ 3 days |  |  |  |  |  |  |  |  |  |  |  |  |  |  |  |  | 
2 | CC[C@H](C)[C@H](N)C(=O)N[C@@H](CCCNC(=N)N)C(=O)N[C@@H](CCCNC(=N)N)C(=O)N[C@H](C(=O)N[C@H](C(=O)N[C@@H](CCCNC(=N)N)C(=O)N[C@@H](CCCNC(=N)N)C(=O)N[C@H](C(=O)N[C@@H](CCCNC(=N)N)C(=O)N[C@@H](CCCNC(=N)N)C(=O)N[C@H](C(=O)N[C@H](C(=O)N[C@@H](CCCNC(=N)N)C(=O)N[C@@H](CCCNC(=N)N)C(=O)N[C@H](C(=O)N[C@@H](CCCNC(=N)N)C(=O)N[C@@H](CCCNC(=N)N)C(=O)N[C@H](C(=O)N[C@H](C(=O)N[C@@H](CCCNC(=N)N)C(=O)N[C@@H](CCCNC(=N)N)C(=O)O)[C@@H](C)CC)[C@@H](C)CC)[C@@H](C)CC)[C@@H](C)CC)[C@@H](C)CC)[C@@H](C)CC)[C@@H](C)CC)[C@@H](C)CC [SEQ ID NO: 4] (H-IRRIIRRIRRIIRRIRRIIRR-OH; N-terminus and C-terminus assumed) |  |  | 8 µg/mL (≈ 2.75 µM) | 8 µg/mL (≈ 2.75 µM) | 8 µg/mL (≈ 2.75 µM) | 8 µg/mL (≈ 2.75 µM) | 4 µg/mL (≈ 1.37 µM) | 4 µg/mL (≈ 1.37 µM) | 8 µg/mL (≈ 2.75 µM) | 16 µg/mL (≈ 5.5 µM) | 4 µg/mL (≈ 1.37 µM) | 32 µg/mL (≈ 11 µM) | 16 µg/mL (≈ 5.5 µM) | 4 µg/mL (≈ 1.37 µM) | 8 µg/mL (≈ 2.75 µM) | 8 µg/mL (≈ 2.75 µM) | 4 µg/mL (≈ 1.37 µM) | 4 µg/mL (≈ 1.37 µM) | 
3 | CC(C)[C@H](N)C(=O)N[C@@H](Cc1c[nH]c2ccccc12)C(=O)N[C@@H](CCCNC(=N)N)C(=O)N[C@@H](Cc1c[nH]c2ccccc12)C(=O)N[C@H](C(=O)N[C@@H](CCCNC(=N)N)C(=O)N[C@@H](CCCNC(=N)N)C(=O)N[C@H](C(=O)N[C@@H](Cc1c[nH]c2ccccc12)C(=O)N[C@@H](CCCNC(=N)N)C(=O)N[C@@H](Cc1c[nH]c2ccccc12)C(=O)N[C@H](C(=O)N[C@@H](CCCNC(=N)N)C(=O)N[C@@H](CCCNC(=N)N)C(=O)O)C(C)C)C(C)C)C(C)C [SEQ ID NO: 6] (H-VWRWVRRVWRWVRR-OH; N-terminus and C-terminus assumed) |  |  | 1 µg/mL (≈ 0.477 µM) | 16 µg/mL (≈ 7.63 µM) | 2 µg/mL (≈ 0.954 µM) | 4 µg/mL (≈ 1.91 µM) | 1 µg/mL (≈ 0.477 µM) | 0.5 µg/mL (≈ 0.238 µM) | 0.5 µg/mL (≈ 0.238 µM) | 8 µg/mL (≈ 3.82 µM) | 0.5 µg/mL (≈ 0.238 µM) | 4 µg/mL (≈ 1.91 µM) | 4 µg/mL (≈ 1.91 µM) | 0.5 µg/mL (≈ 0.238 µM) | 0.5 µg/mL (≈ 0.238 µM) | 0.5 µg/mL (≈ 0.238 µM) | 8 µg/mL (≈ 3.82 µM) | 2 µg/mL (≈ 0.954 µM) | 
4 | CC(C)[C@H](N)C(=O)N[C@H](C(=O)N[C@@H](CCCNC(=N)N)C(=O)N[C@H](C(=O)N[C@H](C(=O)N[C@@H](CCCNC(=N)N)C(=O)N[C@@H](CCCNC(=N)N)C(=O)N[C@H](C(=O)N[C@H](C(=O)N[C@@H](CCCNC(=N)N)C(=O)N[C@H](C(=O)N[C@H](C(=O)N[C@@H](CCCNC(=N)N)C(=O)N[C@@H](CCCNC(=N)N)C(=O)O)C(C)C)C(C)C)C(C)C)C(C)C)C(C)C)C(C)C)C(C)C [SEQ ID NO: 7] (H-VVRVVRRVVRVVRR-OH; N-terminus and C-terminus assumed) |  |  | 32 µg/mL (≈ 18.3 µM) | >32 µg/mL | >32 µg/mL | >32 µg/mL | 16 µg/mL (≈ 9.15 µM) | >32 µg/mL | >32 µg/mL | >32 µg/mL | 16 µg/mL (≈ 9.15 µM) | >32 µg/mL | 16 µg/mL (≈ 9.15 µM) | >32 µg/mL | >32 µg/mL | >32 µg/mL | >32 µg/mL | >32 µg/mL | 
5 | Cc1nnc(SCC2=C(C(=O)O)N3C(=O)[C@@H](NC(=O)Cn4cnnn4)[C@H]3SC2)s1 [cefazolin] | one log reduction in viable bacteria |  |  |  |  |  |  |  |  |  |  |  |  |  |  |  |  |  | did not achieve a three-log reduction
6 | LL-37 [LL37] |  | ≤ 9 days |  |  |  |  |  |  |  |  |  |  |  |  |  |  |  |  | 
